Entries after “also recorded” stand apart in the source; their conditions may differ.
Experiments:
[1] = system: Sitophilus zeamais; assay: Weevil survival; format: in vivo; settings: 250 μg/ml or 2.5 mg/ml, 18 days
Description: (§1) Weevil survival was monitored daily for 18 days, after which DNA was extracted from the remaining weevils in each group. Briefly, the weevil body was surface sterilized by dipping the weevil into a 6% bleach solution for approximately 5 seconds. Weevils were then rinsed in sterile water and DNA was extracted from each individual aphid using a DNA extraction kit (Qiagen, DNeasy kit) according to manufacturer's instructions. […]; SEQ ID NO: 243). […]; SEQ ID NO: 245) (Login et al., 2011). qPCR was performed using a qPCR amplification ramp of 1.6 degrees C./s and the following conditions: 1) 95° C. for 10 minutes, 2) 95° C. for 15 seconds, 3) 57° C. for 30 seconds, 4) repeat steps 2-3 40×, 5) 95° C. for 15 seconds, 6) 55° C. for 1 minute, 7) ramp change to 0.15 degrees C./s, 8) 95° C. for 1 second. qPCR data was analyzed using analytic (Thermo Fisher Scientific, QuantStudio Design and Analysis) software.

[2] = system: Sitophilus zeamais; assay: Emergence of F1 weevils (fecundity); settings: 2.5 mg/ml, till day 43
[3] = system: Escherichia coli DH5a; assay: Antibiotic coating and penetration of corn kernels (E. coli growth on LB plates); format: cell-based; settings: kernels soaked in 2.5 or 0.25 mg/ml
[4] = system: Sitophilus primary endosymbiont (SPE, Candidatus Sodalis pierantonius); assay: Sitophilus primary endosymbiont (SPE) level by qPCR in weevils; format: in vivo, Sitophilus zeamais; settings: for SPE amount, water-treated weevils versus treated (F0): 18 days of treatment
Procedure: Sitophilus maize weevils (Sitophilus zeamais) were reared on organic corn at 27.5° C. and 70% relative humidity. Prior to being used for weevil rearing, corn was frozen for 7 days and then tempered to 10% humidity with sterile water. […] Ciprofloxacin (Sigma) stock solutions were made at 25 mg/ml in 0.1 N HCl, sterilized by passing through a 0.22 μm syringe filter, and stored at −20° C. For treatments, the appropriate amount of stock solution was diluted in sterile water.
as §1

[5] = system: Sitophilus zeamais; assay: Development of F1 weevils in dissected corn kernels; format: in vivo; settings: 250 ug/ml and 2.5 mg/ml

## O=C(O)c1cn(C2CC2)c2cc(N3CCNCC3)c(F)cc2c1=O [ciprofloxacin]
[1]
  weevil survival: all weevils remained alive
[2]
  emerged F1 offspring: much less offspring
[3]
  E. coli growth on plates with entire soaked corn kernels: inhibition of bacterial growth; also recorded: no bacteria grew
[4]; 250 ug/ml
  SPE amount, water-treated weevils versus treated (F0): approximately 4 fold higher
[4]; 2.5 mg/ml
  SPE amount, water-treated weevils versus treated (F0): ~8 fold higher
[4]; 2.5 mg/ml, F1 weevils dissected from corn kernels
  SPE level, water-treated F1 weevils versus treated: approximately 4 fold higher
[5]
  development of F1 weevils: delay in development

Source: patent US12171801B2, “Compositions and related methods for controlling vector-borne diseases” (priority 2017, dated 2024)
